Results as given in PubChem BioAssay AID180 (DTP/NCI, 2004).
“And” between values parts separate entries of the source, which are not always exact repeats. Equal values may be shown once.

System: BDF1 mice, Adenocarcinoma 755 s.c., tumor weight T/C
Test: NCI In Vivo Anticancer Drug Screen. Data for tumor model Adenocarcinoma 755 (subcutaneous) in B6D2F1 (BDF1) mice
Conditions: endpoint: mean tumor weight, higher = larger tumour
Procedure, shortened: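 Readout: T/C, i.e. treated-group measurement over vehicle-control measurement. Endpoint is survival or tumor size in tumor-bearing mice given compound.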

[1] = dose: 5.0 mg/kg/injection, schedule: Q01DX011 (ip), vehicle: methylcellulose (MC)
[2] = dose: 6.0 mg/kg/injection, schedule: Q01DX011 (ip), vehicle: carboxymethylcellulose (CMC)
[3] = dose: 12.0 mg/kg/injection, schedule: Q01DX011 (ip), vehicle: carboxymethylcellulose (CMC)

CCN(CC)c1ccc2cc3ccc(=[N+](CC)CC)cc-3oc2c1
T/C (dose: 0.64 mg/kg/injection, schedule: Q01DX011 (ip), vehicle: carboxymethylcellulose (CMC)): 33 % of control
T/C (dose: 0.66 mg/kg/injection, schedule: Q01DX011 (ip), vehicle: carboxymethylcellulose (CMC)): 47 % of control
T/C (dose: 1.27 mg/kg/injection, schedule: Q01DX011 (ip), vehicle: carboxymethylcellulose (CMC)): 119 % of control
T/C (dose: 1.32 mg/kg/injection, schedule: Q01DX011 (ip), vehicle: carboxymethylcellulose (CMC)): 90 % of control
T/C (dose: 1.7 mg/kg/injection, schedule: Q01DX011 (ip), vehicle: carboxymethylcellulose (CMC)): 91 % of control
T/C (dose: 2.64 mg/kg/injection, schedule: Q01DX011 (ip), vehicle: carboxymethylcellulose (CMC)): 81 % of control
T/C (dose: 4.0 mg/kg/injection, schedule: Q01DX011 (ip), vehicle: other): 115 % of control
T/C [1]: 70 % of control
T/C (dose: 5.1 mg/kg/injection, schedule: Q01DX011 (ip), vehicle: carboxymethylcellulose (CMC)): 53 % of control
T/C (dose: 5.28 mg/kg/injection, schedule: Q01DX011 (ip), vehicle: carboxymethylcellulose (CMC)): 100 % of control
T/C (dose: 8.0 mg/kg/injection, schedule: Q01DX011 (ip), vehicle: other): 114 % of control
T/C (dose: 12.0 mg/kg/injection, schedule: Q01DX011 (ip), vehicle: other): 90 % of control
T/C (dose: 15.0 mg/kg/injection, schedule: Q01DX011 (ip), vehicle: methylcellulose (MC)): 75 % of control

CCCCCCOP(=O)(N1CC1C)N1CC1C (configuration not stated)
T/C (dose: 12.5 mg/kg/injection, schedule: Q01DX011 (ip), vehicle: saline): 100 % of control
T/C (dose: 100.0 mg/kg/injection, schedule: Q01DX011 (ip), vehicle: saline): 13 % of control and 19 % of control and 26 % of control

CC1([CH2][Hg][I])OCCOC1[CH2][Hg][I] (configuration not stated)
T/C (dose: 2.5 mg/kg/injection, schedule: Q01DX011 (ip), vehicle: saline): 57 % of control
T/C (dose: 5.0 mg/kg/injection, schedule: Q01DX011 (ip), vehicle: saline): 71 % of control
T/C (dose: 10.0 mg/kg/injection, schedule: Q01DX011 (ip), vehicle: saline): 57 % of control
T/C (dose: 10.9 mg/kg/injection, schedule: Q01DX011 (ip), vehicle: saline): 36 % of control
T/C (dose: 11.0 mg/kg/injection, schedule: Q01DX011 (ip), vehicle: carboxymethylcellulose (CMC)): 87 % of control
T/C (dose: 20.0 mg/kg/injection, schedule: Q01DX011 (ip), vehicle: saline): 7 % of control

CC(COS(C)(=O)=O)C(=O)N1CCN(C(=O)C(C)COS(C)(=O)=O)CC1 (configuration not stated)
T/C (dose: 28.0 mg/kg/injection, schedule: Q01DX011 (ip), vehicle: methylcellulose (MC)): 69 % of control
T/C (dose: 57.0 mg/kg/injection, schedule: Q01DX011 (ip), vehicle: methylcellulose (MC)): 74 % of control
T/C (dose: 113.0 mg/kg/injection, schedule: Q01DX011 (ip), vehicle: methylcellulose (MC)): 73 % of control
T/C (dose: 225.0 mg/kg/injection, schedule: Q01DX011 (ip), vehicle: methylcellulose (MC)): 69 % of control

O=c1[nH]cc(N(CCCl)CCCl)c(=O)[nH]1
T/C (dose: 0.17 mg/kg/injection, schedule: Q01DX011 (ip), vehicle: carboxymethylcellulose (CMC)): 82 % of control
T/C (dose: 0.21 mg/kg/injection, schedule: Q01DX011 (ip), vehicle: carboxymethylcellulose (CMC)): 93 % of control and 94 % of control
T/C (dose: 0.34 mg/kg/injection, schedule: Q01DX011 (ip), vehicle: carboxymethylcellulose (CMC)): 86 % of control
T/C (dose: 0.42 mg/kg/injection, schedule: Q01DX011 (ip), vehicle: carboxymethylcellulose (CMC)): 53 % of control and 54 % of control
T/C (dose: 0.67 mg/kg/injection, schedule: Q01DX011 (ip), vehicle: carboxymethylcellulose (CMC)): 45 % of control
T/C (dose: 0.68 mg/kg/injection, schedule: Q01DX011 (ip), vehicle: carboxymethylcellulose (CMC)): 77 % of control and 80 % of control
T/C (dose: 0.83 mg/kg/injection, schedule: Q01DX011 (ip), vehicle: carboxymethylcellulose (CMC)): 58 % of control
T/C (dose: 1.11 mg/kg/injection, schedule: Q01DX011 (ip), vehicle: carboxymethylcellulose (CMC)): 59 % of control
T/C (dose: 1.13 mg/kg/injection, schedule: Q01DX011 (ip), vehicle: carboxymethylcellulose (CMC)): 40 % of control
T/C (dose: 1.35 mg/kg/injection, schedule: Q01DX011 (ip), vehicle: carboxymethylcellulose (CMC)): 22 % of control
T/C (dose: 1.67 mg/kg/injection, schedule: Q01DX011 (ip), vehicle: carboxymethylcellulose (CMC)): 18 % of control
T/C (dose: 1.69 mg/kg/injection, schedule: Q01DX011 (ip), vehicle: carboxymethylcellulose (CMC)): 27 % of control and 28 % of control

CNc1ncnc2c1cnn2C
T/C [1]: 65 % of control
T/C (dose: 10.0 mg/kg/injection, schedule: Q01DX011 (ip), vehicle: methylcellulose (MC)): 55 % of control
T/C (dose: 20.0 mg/kg/injection, schedule: Q01DX011 (ip), vehicle: methylcellulose (MC)): 29 % of control

CCCCn1cnc2c(SC(C)C)nc(N)nc21
T/C (dose: 1.56 mg/kg/injection, schedule: Q01DX011 (ip), vehicle: methylcellulose (MC)): 64 % of control
T/C (dose: 3.12 mg/kg/injection, schedule: Q01DX011 (ip), vehicle: methylcellulose (MC)): 57 % of control
T/C (dose: 6.25 mg/kg/injection, schedule: Q01DX011 (ip), vehicle: methylcellulose (MC)): 14 % of control and 24 % of control
T/C (dose: 12.5 mg/kg/injection, schedule: Q01DX011 (ip), vehicle: methylcellulose (MC)): 3 % of control and 8 % of control

Nc1nc(=S)c2ncn(C3CCCC3)c2[nH]1
T/C (dose: 3.1 mg/kg/injection, schedule: Q01DX011 (ip), vehicle: methylcellulose (MC)): 37 % of control
T/C (dose: 6.2 mg/kg/injection, schedule: Q01DX011 (ip), vehicle: methylcellulose (MC)): 8 % of control

S=c1nc[nH]c2nc[nH]c12.[Cd]
T/C (dose: 0.4 mg/kg/injection, schedule: Q01DX011 (ip), vehicle: saline): 38 % of control

Brc1ncc2[nH]cnc2n1
T/C (dose: 25.0 mg/kg/injection, schedule: Q01DX011 (ip), vehicle: methylcellulose (MC)): 79 % of control
T/C (dose: 75.0 mg/kg/injection, schedule: Q01DX011 (ip), vehicle: methylcellulose (MC)): 75 % of control

CCCCNS(=O)(=O)c1ncnc2nc[nH]c12
T/C (dose: 2.0 mg/kg/injection, schedule: Q01DX011 (ip), vehicle: carboxymethylcellulose (CMC)): 115 % of control
T/C [2]: 44 % of control
T/C [3]: 13 % of control

CN1CC(=O)N=C1N
T/C (dose: 250.0 mg/kg/injection, schedule: Q#A X022 (ip), vehicle: water): 47 % of control
T/C (dose: 375.0 mg/kg/injection, schedule: Q#A X022 (ip), vehicle: water): 88 % of control
T/C (dose: 500.0 mg/kg/injection, schedule: Q#A X022 (ip), vehicle: water): 36 % of control
T/C (dose: 750.0 mg/kg/injection, schedule: Q#A X022 (ip), vehicle: water): 67 % of control
T/C (dose: 1250.0 mg/kg/injection, schedule: Q#A X022 (ip), vehicle: water): 72 % of control
T/C (dose: 1500.0 mg/kg/injection, schedule: Q#A X022 (ip), vehicle: water): 68 % of control

C1CN1P1(N2CC2)=NP(N2CC2)(N2CC2)=NP(N2CC2)(N2CC2)=N1
T/C (dose: 3.0 mg/kg/injection, schedule: Q01DX011 (ip), vehicle: carboxymethylcellulose (CMC)): 60 % of control
T/C [2]: 43 % of control
T/C (dose: 6.0 mg/kg/injection, schedule: Q01DX011 (ip), vehicle: methylcellulose (MC)): 17 % of control and 21 % of control
T/C [3]: 9 % of control
